Experimental data reported in article PMC9020084 (iScience, 2022).

Legend:
Format in all cases: biochemical
[1] = target: T1, SHIP2-Enz (S2-Enz) (Homo sapiens, UniProt O15357); test: fluorescence polarization PI
T1 sequence (O15357 414-872): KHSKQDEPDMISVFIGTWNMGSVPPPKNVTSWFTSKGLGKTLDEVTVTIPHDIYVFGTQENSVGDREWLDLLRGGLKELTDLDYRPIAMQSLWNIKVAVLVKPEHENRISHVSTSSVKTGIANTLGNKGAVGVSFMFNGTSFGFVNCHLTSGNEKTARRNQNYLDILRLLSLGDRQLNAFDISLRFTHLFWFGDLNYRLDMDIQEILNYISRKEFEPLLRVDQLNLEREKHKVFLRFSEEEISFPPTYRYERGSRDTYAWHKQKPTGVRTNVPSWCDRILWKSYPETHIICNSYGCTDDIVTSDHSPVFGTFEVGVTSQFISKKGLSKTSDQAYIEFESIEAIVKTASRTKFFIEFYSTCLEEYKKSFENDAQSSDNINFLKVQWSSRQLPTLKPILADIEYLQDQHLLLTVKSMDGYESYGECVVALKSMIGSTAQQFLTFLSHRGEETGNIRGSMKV

[2] = target: T2, SHIP1ΔC2 (S1ΔC2) (Homo sapiens, UniProt Q92835); test: malachite green phosphate release; details: agonist (activation); C2 domain deleted
T2 sequence (Q92835 397-730): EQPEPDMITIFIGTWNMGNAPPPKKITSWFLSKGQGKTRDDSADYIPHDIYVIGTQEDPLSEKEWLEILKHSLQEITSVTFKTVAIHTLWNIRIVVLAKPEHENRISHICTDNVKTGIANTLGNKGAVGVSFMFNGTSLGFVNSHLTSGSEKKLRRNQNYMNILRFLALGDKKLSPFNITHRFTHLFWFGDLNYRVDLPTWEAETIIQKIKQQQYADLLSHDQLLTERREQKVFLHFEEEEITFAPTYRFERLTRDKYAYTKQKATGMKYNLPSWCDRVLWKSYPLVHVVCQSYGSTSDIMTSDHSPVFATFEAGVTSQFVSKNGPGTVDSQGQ

[3] = target: T3, SHIP1-Enz (S1-Enz) (Homo sapiens, UniProt Q92835); test: fluorescence polarization PI
T3 sequence (Q92835 397-864): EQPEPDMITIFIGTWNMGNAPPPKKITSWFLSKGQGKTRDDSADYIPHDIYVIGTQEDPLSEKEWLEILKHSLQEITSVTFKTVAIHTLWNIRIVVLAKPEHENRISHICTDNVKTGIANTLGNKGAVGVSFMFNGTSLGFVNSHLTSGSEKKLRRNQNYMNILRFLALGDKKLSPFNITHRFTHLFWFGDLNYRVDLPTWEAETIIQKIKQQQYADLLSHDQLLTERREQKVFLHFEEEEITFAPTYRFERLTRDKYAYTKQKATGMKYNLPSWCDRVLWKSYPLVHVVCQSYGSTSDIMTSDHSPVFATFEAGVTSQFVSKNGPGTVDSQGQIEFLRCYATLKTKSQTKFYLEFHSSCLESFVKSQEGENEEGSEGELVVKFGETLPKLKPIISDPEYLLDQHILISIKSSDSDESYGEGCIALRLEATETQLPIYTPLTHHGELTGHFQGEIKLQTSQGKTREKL

EC50 [1]: 1170 nM
EC50 [3]: 119 nM
SMILES: Cc1sc(S(=O)(=O)N2CCSCC2)cc1NC(=O)CNS(=O)(=O)c1ccc(F)cc1 [compound 8, K306]
malachite green phosphate release [2]: K306 retained significant agonistic activity for SHIP1ΔC2
